Where two headings read alike, the source gives them in different places.
Columns and labels:
Type in all cases: cell-based
[1] = target: T1, PfENT1 (Plasmodium falciparum, UniProt Q8IDM6); settings: primary HTS, compounds at 10 μM, 125 μM 5-FUrd
T1 construct: expressed in transfected cells; host or cells: fui1Δ yeast (Saccharomyces cerevisiae), co-expressing GFP
Procedure, shortened: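 fui1Δ yeast expressing PfENT1 and GFP were grown with 125 μM 5-fluorouridine, so growth reflects blocked 5-FUrd uptake. Compounds were screened at 10 μM. Growth scored by OD620 turbidity and GFP fluorescence, and hits had to be positive on both.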

[2] = target: T2, PfENT1-HA-CO (Plasmodium falciparum, UniProt Q8IDM6); assay: Concentration-dependent rescue of PfENT1-HA-CO-expressing fui1Δ yeast from 5-FUrd induced death
T2 construct: HA; expressed in transfected cells; host or cells: fui1Δ yeast (Saccharomyces cerevisiae)
Protocol: In the primary screen the compounds were tested at a concentration of 10 μM. Hits were identified by the growth of fui1Δ yeast expressing PfENT1 and Green Fluorescent Protein (GFP) in the presence of the cytotoxic nucleoside 5-fluorouridine (5-FUrd). 5-FUrd is transported by PfENT1. PfENT1 expressing fui1Δ yeast will only grow in the presence of 125 μM 5-FUrd if a PfENT1 inhibitor blocks the uptake of 5-FUrd into the yeast. Significant yeast growth in the HTS in 384 well plates was determined by two criteria: 1) turbidity as determined by the optical density at 620 nm (OD620) and 2) GFP fluorescence intensity. Positive responses were signal intensities greater than four standard deviations above the mean of the negative growth control wells. Hits had to be positive by both criteria. From the library screen, 171 chemical entities were identified as positive by both criteria (Table 2).
Of the 171 hits from the primary HTS, nine were chosen for more extensive validation using a series of secondary assays. These nine compounds included the top seven hits (HTS rank #1-7 as indicated in Tables 1 and 2), the first hit identified (compound HTS rank #19) and compound HTS rank #13, which was a unique chemical scaffold relative to the other 8 compounds. The secondary assays used to validate the nine selected hits include 1) repeat of the primary HTS using a series of compound concentrations to determine the concentration-response relationship for each compound, 2) testing in an alternative yeast-based assay in purine auxotrophic ade2Δ yeast expressing PfENT1 (described below, FIG. 1 and FIG. 4B), and 3) a Plasmodium falciparum cytotoxicity assay (described below, FIGS. 5A-B.). These assays allowed further confirmation the hits, determining the concentration-response relationships in the yeast-based assays and the concentration dependence of their ability to kill Plasmodium falciparum parasites during growth in in vitro culture. There was a roughly linear correlation between the compounds' IC50s measured in the two yeast-based assays. All nine compounds were tested in the P. falciparum cytotoxicity assay (FIGS. 5A-B).
(§1) The means values from single experiments are shown. In the key, CQ=chloroquine, and the Table 1 compounds are referenced as symbols indicating HTS rank #1-7, 13, and 19. In this assay, inhibitors of PfENT1 […] yeast growth (FIGS. 4B-C).

[3] = target: T3, PfENT1-CO (Plasmodium falciparum, UniProt Q8IDM6); assay: [3H]adenosine uptake into PfENT1-CO expressing ade2Δ yeast; settings: uptake over 15 minutes; Mean ± SD, N ≧ 3
T3 construct: expressed in transfected cells; host or cells: purine auxotrophic ade2Δ yeast (Saccharomyces cerevisiae)
Source text: FIGS. 4A-C are graphs showing the validation of selected compounds identified as Plasmodium falciparum Equilibrative Nucleoside Transporter Type I (PfENT1) inhibitors in the high-throughput screen (HTS). […] The means values from single experiments are shown. In the key, CQ=chloroquine, and the Table 1 compounds are referenced as symbols indicating HTS rank #1-7, 13, and 19.
as §1

[4] = tested on: P. falciparum 3D7 parasites; assay: [3H]adenosine uptake into trophozoite-stage P. falciparum 3D7 parasites; settings: Plasmodium falciparum, uptake over 15 minutes, Mean ± SD, N ≧ 3
Source text: FIGS. 5A-E are graphs and images reflecting the inhibitory effects of selected PfENT1 inhibiting compounds with P. falciparum. FIGS. 5A-C are graphs illustrating the inhibitory effects of selected PfENT1 inhibiting compounds with P. falciparum.

[5] = tested on: P. falciparum parasites (3D7 strain); assay: Plasmodium falciparum cytotoxicity assay (3D7 strain, SYBR-Green); settings: 72-96 hours, Mean ± SD
Protocol: Plasmodium falciparum Cytotoxicity Assay
P. falciparum parasites (3D7 strain-chloroquine sensitive) are grown in in vitro culture in human erythrocytes. Each well is inoculated with a low density of parasites in standard parasite growth media with supplemented hypoxanthine (10 or 367 μM). Increasing concentrations of drugs are added and parasites are allowed to grow for 72-96 hours in 5% CO2/5% O2/90% N2 gas at 37° C. At the end of the experiment, parasites are lysed, SYBR-Green dye in lysis solution is added and the fluorescence intensity is measured for each well.

[6] = tested on: Dd2 parasite; assay: Plasmodium falciparum parasite viability assay (Dd2); settings: Dd2, high purine media, Mean ± SD
[7] = 3D7, high purine media (hypoxanthine 367 μM), read-out: IC50 3D7 parasite viability-high purine media
[8] = 3D7, low purine media (hypoxanthine 10 μM), read-out: IC50 3D7 parasite viability-low purine media

T1 sequence (Q8IDM6 whole entry): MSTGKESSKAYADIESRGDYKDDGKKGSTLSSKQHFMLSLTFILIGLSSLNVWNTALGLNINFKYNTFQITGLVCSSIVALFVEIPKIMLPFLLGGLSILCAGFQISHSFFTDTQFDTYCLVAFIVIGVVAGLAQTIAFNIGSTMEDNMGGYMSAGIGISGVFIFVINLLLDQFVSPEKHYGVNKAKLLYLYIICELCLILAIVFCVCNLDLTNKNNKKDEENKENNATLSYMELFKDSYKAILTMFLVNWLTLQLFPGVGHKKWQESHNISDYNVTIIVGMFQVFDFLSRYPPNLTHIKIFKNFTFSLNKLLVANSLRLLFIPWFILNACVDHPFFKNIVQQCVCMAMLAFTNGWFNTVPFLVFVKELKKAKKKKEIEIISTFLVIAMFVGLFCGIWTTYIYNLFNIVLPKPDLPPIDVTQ
T2 sequence (Q8IDM6 whole entry): as above
T3 sequence (Q8IDM6 whole entry): as above

Structure (SMILES)	Avg Normalized % maximal activity [1]	also measured
O=C(Nc1cccc(-c2nc3ncccc3o2)c1)c1cccc(F)c1 [compound 6, 3-fluoro-N-(3-[1,3]oxazolo [4,5-b]pyridin-2-ylphenyl)benzamide]	59.06%	IC50 [2]: 5.7 ± 1.3 µM; IC50 [3]: 0.0096 ± 0.0074 µM; IC50 [4]: 0.0198 ± 0.0129 µM; IC50 [5, 7]: 33.7 ± 5 µM; IC50 [5, 8]: 34.8 ± 2.4 µM; IC50 [6]: 38.8 ± 4.9 µM
O=C(Nc1ccc(-c2nnc(-c3ccco3)o2)cc1)c1ccco1 [compound 4, N-{4-[5-(2-furyl)-1,3,4-oxadiazol-2-yl]phenyl}-2-furamide]	74.03%	IC50 [2]: 5.7 ± 0.8 µM; IC50 [3]: 0.0137 ± 0.0075 µM; IC50 [4]: 0.0458 ± 0.0241 µM; IC50 [5, 7]: 14.7 ± 1.9 µM; IC50 [5, 8]: 15 ± 1.5 µM; IC50 [6]: 15.3 ± 2.7 µM
O=C(Nc1ccc(Cl)c(-c2nc3ncccc3o2)c1)c1cccs1 [compound 19, N-(4-chloro-3-[1,3]oxazolo [4,5-b]pyridin-2-ylphenyl)-2-thiophenecarboxamide]	21.24%	IC50 [2]: 5.4 ± 0.8 µM; IC50 [3]: 0.0384 ± 0.0165 µM; IC50 [4]: 0.0179 ± 0.0127 µM; IC50 [5, 7]: 42.9 ± 2.8 µM; IC50 [5, 8]: 43.2 ± 2.9 µM; IC50 [6]: 37.4 ± 1.6 µM
Cc1ccccc1/C=C/c1nc2ccccc2c(=O)[nH]1 [compound 13, 2-[2-(2-methylphenyl)vinyl]-4(3H)-quinazolinone]	24.69%	IC50 [2]: 4.7 ± 2.9 µM; IC50 [4]: 0.0216 ± 0.0142 µM; IC50 [5, 7]: 6.7 ± 0.5 µM; IC50 [5, 8]: 6.9 ± 0.4 µM; IC50 [6]: 2.6 ± 0.2 µM
CCC(=O)c1ccc(/C=C/c2nc3ccccc3n2C)o1 [compound 66, 1-{5-[2-(1-methyl-1H-benzimidazol-2-yl)vinyl]-2-furyl}-1-propanone]	7.04%	–
O=C(Nc1cccc(NC(=O)c2cccs2)c1)c1cc2ccccc2o1 [compound 116, N-{3-[(2-thienylcarbonyl)amino]phenyl)-1-benzofuran-2-carboxamide]	4.34%	–
Cc1ccc(NC(=O)Nc2ccc(F)cc2)nc1 [compound 169, N-(4-fluorophenyl)-N′-(5-methyl-2-pyridinyl)urea]	1.85%	–
COc1ccc(Cl)cc1C(=O)Nc1cc(C)ccn1 [compound 152, 5-chloro-2-methoxy-N-(4-methyl-2-pyridinyl)benzamide]	2.56%	–
CCN(CC)C(=O)c1ccc(-c2ccc(N3CCOCC3)c3ccccc23)nn1 [compound 57]	7.64%	–
COc1ccc(OC)c(Nc2nc(=O)c3cccnc3s2)c1 [compound 63, 2-[(2,5-dimethoxyphenyl)amino]-4H-pyrido[3,2-e][1,3] thiazin-4-one]	7.19%	–
Cn1nc(-c2ccc(C(=O)N3CCCCC3)cc2)c2ccccc2c1=O [compound 59, 2-methyl-4-[4-(1-piperidinylcarbonyl)phenyl]-1(2H)-phthalazinone]	7.59%	–
O=C(Nc1sc2c(c1CNC1CCCCC1)CCCC2)c1ccccc1 [compound 148, N-{3-[(cyclohexylamino)methyl]-4,5,6,7-tetrahydro-1-benzothien-2-yl} benzamide]	2.74%	–
COc1cccc(C(=O)Nc2ccc(-c3nc4ncccc4o3)cc2C)c1 [compound 89, 3-methoxy-N-(2-methyl-4-[1,3]oxazolo [4,5-b]pyridin-2-ylphenyl)benzamide]	5.35%	–
O=C(Nc1cccc(-c2nc3ncccc3o2)c1)c1ccccc1F [compound 96, 2-fluoro-N-(3-[1,3]oxazolo [4,5-b]pyridin-2-ylphenyl)benzamide]	4.92%	–
COc1ccccc1C(=O)Nc1nnc(COc2ccc(C)cc2)s1 [compound 158, 2-methoxy-N-{5-[(4-methylphenoxy)methyl]-1,3,4-thiadiazol-2-yl}benzamide]	2.12%	–
Cc1ccc2n1CCN(C(=O)c1ccc(S(=O)(=O)N(C)C)cc1)C2C (stereo not drawn) [compound 136]	3.43%	–

Structure (SMILES)	Avg Normalized % maximal activity [1]	also measured
COc1cccc(C(=O)Nc2cccc(-c3nnc(-c4ccco4)o3)c2)c1 [compound 9, N-{3-[5-(2-furyl)-1,3,4-oxadiazol-2-yl]phenyl}-3-methoxybenzamide]	54.12%	–
O=C(CSc1nnc2ccc3ccccc3n12)Nc1ccccc1F [compound 56, N-(2-fluorophenyl)-2-([1,2,4]triazolo[4,3-a]quinolin-1-ylthio)acetamide]	7.69%	–
CC(=O)[C@H]1CC[C@H]2[C@@H]3C[C@H](C)C4=CC(=O)CC[C@]4(C)[C@H]3[C@@H](O)C[C@]12C [compound 121]	4.13%	–
O=C(O)c1ccc(S(=O)(=O)N(Cl)Cl)cc1 [compound 151]	2.60%	–
COc1ccc(OC)c(NC(=O)CC2Nc3cc(C)c(C)cc3NC2=O)c1 (stereo not drawn) [compound 171, N-(2,5-dimethoxyphenyl)-2-(6,7-dimethyl-3-oxo-1,2,3,4-tetrahydro-2-quinoxalinyl)acetamide]	1.60%	–
COc1ccc(NC(=O)COc2ccc3ccc(=O)oc3c2)cc1 [compound 78, N-(4-methoxyphenyl)-2-[(2-oxo-2H-chromen-7-yl)oxy]acetamide]	6.16%	–
CCOC(=O)CSc1nnc2c3ccccc3n(CC)c2n1 [compound 161]	2.08%	–
CCOCc1nnc(NC(=O)c2ccc(OC)cc2)s1 [compound 47]	8.66%	–
O=C(COc1ccccc1Cl)Nc1ccc(C(=O)N2CCCCC2)cc1 [compound 8, 2-(2-chlorophenoxy)-N-[4-(1-piperidinylcarbonyl)phenyl]acetamide]	54.23%	–
CC1(C)CC(=O)c2sc(NC(=O)c3ccccc3F)nc2C1 [compound 61, N-(5,5-dimethyl-7-oxo-4,5,6,7-tetrahydro-1,3-benzothiazol-2-yl)-2-fluorobenzamide]	7.27%	–
CCc1ccc(C(C)NC(=O)c2nc[nH]n2)cc1 (stereo not drawn) [compound 48, N-[1-(4-ethylphenyl)ethyl]-1H-1,2,4-triazole-3-carboxamide]	8.44%	–
CCOC(=O)c1ccc(NC(=O)c2nn(CC)cc2Br)cc1 [compound 79, ethyl 4-{[(4-bromo-1-ethyl-1H-pyrazol-3-yl)carbonyl]amino}benzoate]	6.01%	–
C1CCN2C[C@@H]3C[C@@H](CN4CCCC[C@@H]34)[C@H]2C1.O=S(=O)(O)O [compound 81]	5.81%	–
O=C(Nc1ccc(-c2nnc(-c3ccccc3)o2)cc1)c1ccccc1Cl [compound 132]	3.60%	–
O=C(Nc1cccc(-c2cn3ccsc3n2)c1)c1ccccc1F [compound 20, 2-fluoro-N-(3-imidazo[2,1-b][1,3]thiazol-6-ylphenyl)benzamide]	19.78%	–

— patent publication US9695193B2, “Inhibitors of Plasmodium falciparum equilibrative nucleoside transporter type I as anti-parasitic compounds” (The Trustees of Columbia University in the City of New York, priority 2013, dated 2017)
